Some results are limits rather than exact numbers.

The term Ki denotes a measure of affinity in units of concentration, obtained from inhibition or displacement.

In one assay the target is GABA-A receptor; anion channel. Kind of assay: Displacement of [3H]flunitrazepam at GABA-A benzodiazepine receptor in rat brain cortical membranes. The assay is classed as cell membranes, Membrane.
For `Oc1nc2ccccc2c2cc(-c3cccs3)nn12`, the inhibitory constant (Ki) worked out at 7.4 nM.
Still for that read-out and setting: the figure for `O=C(O)c1cc2c3ccccc3nc(O)n2n1` is above 10000 nM.
The same measure, in the same setting: the figure for `CCOC(=O)c1cc2c3ccccc3[nH]c(=O)n2n1` is 28 nM; for `CCOC(=O)c1cc2c3ccccc3nc(S)n2n1` it is 3290 nM; for `Oc1nc2ccccc2c2cc(-c3ccccc3)nn12` it is 59 nM.
The same measure, in the same setting: with `c1ccc(-c2cc3c4ccccc4ncn3n2)cc1` the figure was above 10000 nM; with `CCOC(=O)c1cc2c3ccccc3ncn2n1`, above 10000 nM; with `Cc1nnc(-c2cc3c4ccccc4nc(O)n3n2)o1`, 4590 nM.
Consider `c1ccc(-c2cc3n(n2)CNc2ccccc2-3)cc1`, for which the Ki was 6570 nM.
The same measure, in the same setting: the figure for `Oc1nc2ccccc2c2cc(-c3ccccn3)nn12` is 53 nM; for `CCOC(=O)c1cc2c3cc(Cl)ccc3nc(O)n2n1` it is 50 nM.
Still for that read-out and setting: with `Cn1c(=O)n2nc(-c3ccccc3)cc2c2ccccc21` the figure was above 10000 nM.
On the same count and under the same terms, the figure for `Oc1nc2ccccc2c2cc(-c3ccco3)nn12` is 16 nM; for `Oc1nc2ccccc2c2cc(-c3ccc(Cl)cc3)nn12` it is 5300 nM; for `Oc1nc2ccc(Cl)cc2c2cc(-c3ccco3)nn12` it is 41 nM.
For the molecule `CCOC(=O)c1cc2c3ccccc3n(CC)c(=O)n2n1`, the inhibitory constant (Ki) was above 10000 nM.
The same measure, in the same setting: the figure for `CCOC(=O)c1cc2c3ccccc3n(C)c(=O)n2n1` is above 10000 nM.
With `CCOC(=O)c1cc2c(cn1)[nH]c1ccccc12`, the inhibition constant (Ki) amounted to 4.5 nM.
On the same count and under the same terms, the figure for `COC(=O)c1cc2c3ccccc3[nH]c(=O)n2n1` is 22 nM; for `O=C(Oc1ccccc1)c1cc2c3ccccc3nc(O)n2n1` it is 3150 nM; for `Oc1nc2ccc(Cl)cc2c2cc(-c3ccccc3)nn12` it is 105 nM.
Still for that read-out and setting: the figure for `Sc1nc2ccccc2c2cc(-c3ccccc3)nn12` is above 10000 nM; for `CCOC(=O)c1cc2n(n1)CNc1ccccc1-2` it is 70 nM; for `CC(C)OC(=O)c1cc2c3ccccc3nc(O)n2n1` it is 434 nM.

The test system of another assay is GABA-A receptor; anion channel. The experiment in a line: Displacement of [3H]flunitrazepam at GABA-A benzodiazepine receptor in rat brain cortical membranes (insoluble). In kind it is cell membranes, Membrane. In general terms: In a radioligand displacement assay an active substance lowers the binding of a labelled ligand.
As for `Oc1nc2ccccc2c2cc(-c3nnco3)nn12`, the Ki result is reported as “Insoluble”.

The record behind these values is ChEMBL document CHEMBL1129075, “Synthesis and binding activity of some pyrazolo[1,5-c]quinazolines as tools to verify an optional binding site of a benzodiazepine receptor ligand” (J Med Chem, 1996).
